US10259776B2, “Branched 3-phenylpropionic acid derivatives and their use” (BAYER INTELLECTUAL PROPERTY GMBH, priority 2011, dated 2019)

Each molecule was assayed against sGC in the CHO reporter cell (Rattus norvegicus (Rat), UniProt P20595) (assay: Action at a recombinant guanylate cyclase reporter cell line). Settings: CHO reporter cell in vitro.
Assay type: cell-based
Experimental: The cellular action of the compounds according to the invention is determined at a recombinant guanylate cyclase reporter cell line, as described in F. Wunder et al., Anal. Biochem. 339, 104-112 (2005).

sGC in the CHO reporter cell, sequence (P20595 whole entry): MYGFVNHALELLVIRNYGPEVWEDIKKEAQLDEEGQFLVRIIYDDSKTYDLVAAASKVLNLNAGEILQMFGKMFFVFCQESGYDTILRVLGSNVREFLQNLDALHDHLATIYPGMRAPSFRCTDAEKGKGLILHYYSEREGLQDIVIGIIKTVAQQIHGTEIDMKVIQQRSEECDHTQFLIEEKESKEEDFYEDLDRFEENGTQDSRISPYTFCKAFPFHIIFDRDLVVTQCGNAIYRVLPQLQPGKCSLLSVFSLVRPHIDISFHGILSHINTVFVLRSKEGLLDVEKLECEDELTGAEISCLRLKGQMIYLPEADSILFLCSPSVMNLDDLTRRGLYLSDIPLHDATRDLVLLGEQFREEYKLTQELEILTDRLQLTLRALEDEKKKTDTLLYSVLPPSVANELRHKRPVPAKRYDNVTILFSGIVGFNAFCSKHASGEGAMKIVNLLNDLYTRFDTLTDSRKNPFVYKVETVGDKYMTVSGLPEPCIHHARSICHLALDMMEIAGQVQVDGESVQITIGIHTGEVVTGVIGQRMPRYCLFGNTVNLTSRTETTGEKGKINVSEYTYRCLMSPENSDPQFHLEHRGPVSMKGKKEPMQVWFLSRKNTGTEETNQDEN
sGC in the CHO reporter cell, sequence (P19686 whole entry partner): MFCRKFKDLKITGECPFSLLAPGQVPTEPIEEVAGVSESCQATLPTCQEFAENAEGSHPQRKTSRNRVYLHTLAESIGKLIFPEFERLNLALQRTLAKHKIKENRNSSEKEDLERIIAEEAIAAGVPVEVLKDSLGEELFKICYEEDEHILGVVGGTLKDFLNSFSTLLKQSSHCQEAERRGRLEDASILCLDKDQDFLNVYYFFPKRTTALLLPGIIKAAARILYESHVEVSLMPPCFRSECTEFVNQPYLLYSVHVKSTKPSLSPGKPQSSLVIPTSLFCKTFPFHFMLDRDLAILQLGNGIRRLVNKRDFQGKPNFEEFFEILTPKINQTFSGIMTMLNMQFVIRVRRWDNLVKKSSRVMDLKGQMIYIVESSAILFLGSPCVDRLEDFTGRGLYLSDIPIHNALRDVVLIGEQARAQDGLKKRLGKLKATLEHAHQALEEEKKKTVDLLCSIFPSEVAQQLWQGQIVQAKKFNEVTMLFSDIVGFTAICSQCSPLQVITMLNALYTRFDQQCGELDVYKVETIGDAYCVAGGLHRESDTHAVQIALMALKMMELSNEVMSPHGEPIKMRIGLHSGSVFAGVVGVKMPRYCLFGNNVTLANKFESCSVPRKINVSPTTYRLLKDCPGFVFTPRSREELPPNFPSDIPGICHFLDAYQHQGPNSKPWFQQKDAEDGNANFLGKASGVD

In order of falling “MEC (minimum effective concentration), sGC-activating activity in the CHO reporter cell” value:
1. CC(C)C(CC(=O)O)c1ccc(Cl)c(NC(=O)C(c2ccc(Cl)cc2)C2CCC(F)(F)C2)c1 (centres unmarked) [Example 20]  1000 nM
2. CC(C)C(CC(=O)O)c1ccc(Cl)c(NC(=O)C(c2ccc(Cl)cc2)C2CCC(F)(F)C2)c1 (centres unmarked) [Example 18]  300 nM
3. C[C@H]([C@H](C(=O)Nc1cc(C(C)(CC(=O)O)C2CC2)ccc1Cl)c1ccc(Cl)cc1)C(F)(F)F (some centres unmarked) [Example 7]  300 nM
4. CC(C)C(CC(=O)O)c1ccc(Cl)c(NC(=O)C(c2ccc(Cl)cc2)C2CCC(F)(F)C2)c1 (centres unmarked) [Example 19]  30 nM
5. C[C@H]([C@H](C(=O)Nc1cc(C(CC(=O)O)C2CC(F)(F)C2)ccc1Cl)c1ccc(Cl)cc1)C(F)(F)F (some centres unmarked) [Example 28]  30 nM
6. C[C@H]([C@H](C(=O)Nc1cc(C(CC(=O)O)C2(C)CC2)ccc1Cl)c1ccc(Cl)cc1)C(F)(F)F (single isomer, unassigned) [Example 26]  10 nM
7. C[C@H]([C@H](C(=O)Nc1cc(C(CC(=O)O)C2CCC2)ccc1Cl)c1ccc(Cl)cc1)C(F)(F)F (single isomer, unassigned; (+)) [Example 34]  10 nM
8. COC(C)(C)C(CC(=O)O)c1ccc(Cl)c(NC(=O)[C@H](c2ccc(Cl)cc2)[C@@H](C)C(F)(F)F)c1 (some centres unmarked) [Example 25]  10 nM
9. CC(C)C(CC(=O)O)c1ccc(Cl)c(NC(=O)C(c2ccc(Cl)cc2)C2CCC(F)(F)C2)c1 (centres unmarked) [Example 21]  10 nM
10. CC(C)C(CC(=O)O)c1ccc(Cl)c(NC(=O)[C@H](c2ccc(Cl)cc2)[C@@H](C)C(F)(F)F)c1 (single isomer, unassigned; (+)) [Example 2]  6.5 nM
11. CC(C)C(C)(CC(=O)O)c1ccc(Cl)c(NC(=O)[C@H](c2ccc(Cl)cc2)[C@@H](C)C(F)(F)F)c1 (single isomer, unassigned) [Example 4]  3 nM
12. C[C@H](C(C(=O)Nc1cc(C(CC(=O)O)C2CC2(F)F)ccc1Cl)c1ccc(Cl)cc1)C(F)(F)F (stereo partly drawn) [Example 32, 3-(4-Chloro-3-{[(3R)-2-(4-chlorophenyl)-4,4,4-trifluoro-3-methylbutanoyl]amino}phenyl)-3-(2,2-difluorocyclopropyl)propanoic acid]  3 nM
13. Cc1ccc([C@@H](C(=O)Nc2cc(C(CC(=O)O)C(C)C)ccc2Cl)[C@@H](C)C(F)(F)F)cc1 (some centres unmarked) [Example 16]  3 nM
14. C[C@H]([C@H](C(=O)Nc1cc(C(CC(=O)O)C2CC2)ccc1Cl)c1ccc(Cl)cc1)C(F)(F)F (some centres unmarked) [Example 23]  3 nM
15. CC(C)C(CC(=O)O)c1ccc(Cl)c(NC(=O)[C@H](c2ccc(Cl)cc2)[C@@H](C)C(F)(F)F)c1 (single isomer, unassigned; (+)) [Example 1]  3 nM
16. C[C@H](C(C(=O)Nc1cc(C(CC(=O)O)C2CC2(F)F)ccc1Cl)c1ccc(Cl)cc1)C(F)(F)F (stereo partly drawn) [Example 31, 3-(4-Chloro-3-{[(3R)-2-(4-chlorophenyl)-4,4,4-trifluoro-3-methylbutanoyl]amino}phenyl)-3-(2,2-difluorocyclopropyl)propanoic acid]  3 nM
17. CC(C)C(CC(=O)O)c1ccc(Cl)c(NC(=O)[C@H](c2ccc(F)cc2)[C@@H](C)C(F)(F)F)c1 (some centres unmarked) [Example 11]  3 nM
18. C[C@H]([C@H](C(=O)Nc1cc(C(CC(=O)O)C2(F)CC2)ccc1Cl)c1ccc(Cl)cc1)C(F)(F)F (some centres unmarked) [Example 27]  3 nM
19. C[C@H]([C@H](C(=O)Nc1cc(C(CC(=O)O)CC2CC2)ccc1Cl)c1ccc(Cl)cc1)C(F)(F)F (single isomer, unassigned) [Example 36]  3 nM
20. COc1cc([C@@H](C(=O)Nc2cc(C(CC(=O)O)C(C)C)ccc2Cl)[C@@H](C)C(F)(F)F)ccc1Cl (some centres unmarked) [Example 15]  3 nM
21. CC(C)C(CC(=O)O)c1ccc(Cl)c(NC(=O)[C@H](c2ccc(Cl)c(F)c2)[C@@H](C)C(F)(F)F)c1 (some centres unmarked) [Example 9]  1 nM
22. Cc1cc([C@@H](C(=O)Nc2cc(C(CC(=O)O)C(C)C)ccc2Cl)[C@@H](C)C(F)(F)F)ccc1Cl (some centres unmarked) [Example 17]  1 nM
23. C[C@H]([C@H](C(=O)Nc1cc(C(CC(=O)O)C2CCC2)ccc1Cl)c1ccc(Cl)cc1)C(F)(F)F (single isomer, unassigned; (+)) [Example 33]  1 nM
24. CCc1ccc([C@@H](C(=O)Nc2cc(C(CC(=O)O)C(C)C)ccc2Cl)[C@@H](C)C(F)(F)F)cc1 (some centres unmarked) [Example 8]  1 nM
25. C[C@H]([C@H](C(=O)Nc1cc(C(C)(CC(=O)O)C2CCC2)ccc1Cl)c1ccc(Cl)cc1)C(F)(F)F (single isomer, unassigned) [Example 6]  1 nM
26. CC(C)C(CC(=O)O)c1ccc(Cl)c(NC(=O)C(c2ccc(CC(F)(F)F)cc2)C(C)C(F)(F)F)c1 (centres unmarked) [Example 12]  1 nM
27. C[C@H]([C@H](C(=O)Nc1cc(C(CC(=O)O)CC2CC2)ccc1Cl)c1ccc(Cl)cc1)C(F)(F)F (single isomer, unassigned) [Example 35]  0.3 nM
28. CC(C)C(CC(=O)O)c1ccc(Cl)c(NC(=O)[C@H](c2ccc(C3CC3(F)F)cc2)[C@@H](C)C(F)(F)F)c1 (some centres unmarked) [Example 13]  0.3 nM
29. CC(C)c1ccc([C@@H](C(=O)Nc2cc(C(CC(=O)O)C(C)C)ccc2Cl)[C@@H](C)C(F)(F)F)cc1 (some centres unmarked) [Example 10]  0.3 nM
30. C[C@H]([C@H](C(=O)Nc1cc(C(C)(CC(=O)O)C2CCC2)ccc1Cl)c1ccc(Cl)cc1)C(F)(F)F (single isomer, unassigned) [Example 5]  0.3 nM
31. CC(C)C(C)(CC(=O)O)c1ccc(Cl)c(NC(=O)[C@H](c2ccc(Cl)cc2)[C@@H](C)C(F)(F)F)c1 (single isomer, unassigned) [Example 3]  0.3 nM
32. CC(C)C(CC(=O)O)c1ccc(Cl)c(NC(=O)[C@H](c2ccc(C(C)(C)C)cc2)[C@@H](C)C(F)(F)F)c1 (some centres unmarked) [Example 14]  0.3 nM
